Assay results: PubChem BioAssay (NCI)
Several values for one entry are separate records, joined by “and”; a condition that tells them apart may be missing. Identical values can stand only once.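 Compound exposure: 48 hours, 5 concentrations, 96-well plates. GI50 marks 50% less growth. Definition used: TGI = concentration required for complete inhibition of growth.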

What was measured:
Experiment in all cases: DTP human tumour cell line panel, 48 h
A498 renal = tested on: A498 renal
HCC-2998 colon = tested on: HCC-2998 colon
HOP-62 NSCLC = tested on: HOP-62 NSCLC
MCF7 breast = tested on: MCF7 breast
NCI-H522 lung = tested on: NCI-H522 lung
OVCAR-5 ovarian = tested on: OVCAR-5 ovarian
RXF 393 renal = tested on: RXF 393 renal
SK-MEL-5 melanoma = tested on: SK-MEL-5 melanoma
SK-OV-3 ovarian = tested on: SK-OV-3 ovarian
SNB-19 CNS = tested on: SNB-19 CNS

Compound | GI50 (A498 renal) | TGI (A498 renal) | GI50 (HCC-2998 colon) [nM] | TGI (HCC-2998 colon) | GI50 (HOP-62 NSCLC) [nM] | TGI (HOP-62 NSCLC) | GI50 (MCF7 breast) [nM] | TGI (MCF7 breast) | GI50 (NCI-H522 lung) [nM] | TGI (NCI-H522 lung) | GI50 (OVCAR-5 ovarian) [nM] | TGI (OVCAR-5 ovarian) | GI50 (RXF 393 renal) | TGI (RXF 393 renal) | GI50 (SK-MEL-5 melanoma) | TGI (SK-MEL-5 melanoma) | GI50 (SK-OV-3 ovarian) [nM] | TGI (SK-OV-3 ovarian) | GI50 (SNB-19 CNS) | TGI (SNB-19 CNS)
CC/C=C\C[C@H](O)C/C=C1/C(=O)C(Cl)=C[C@@H]1C/C=C\CCCC(=O)OC | 3650 nM | 10200 nM | 701 | 2220 nM | 530 | 2250 nM | 185 | 2440 nM | 271 | 592 nM | 754 | 3070 nM | 1090 nM | 3580 nM | 489 nM | 1770 nM | 4720 | 16500 nM | 946 nM | 3310 nM
CC1(C)N=C(N)N=C(N)N1c1ccc(CCCCc2ccc(Cl)cc2S(=O)(=O)F)c(Cl)c1 | 3190 nM | 18900 nM | 1150 | 21200 nM | 630 | 12700 nM | 327 | 9490 nM | 530 | 13400 nM | 666 | 22800 nM | 1260 nM | 20400 nM | 552 nM | 12600 nM | 4300 | 18900 nM | 760 nM | 21300 nM
O=C(Nc1ccc(Br)cc1F)c1cc(F)ccc1O | 172 nM | 667 nM | 2370 | 8450 nM | 1560 | 7820 nM | 1290 | 7140 nM | 319 | 4470 nM | 3850 | > 100000 nM | 554 nM | 3100 nM | 227 nM | 541 nM | 405 | 2550 nM | 419 nM | > 100000 nM
NC(=S)N/N=C/C(=O)O | > 100000 nM | > 100000 nM | – | – | > 100000 | > 100000 nM | 5580 | > 100000 nM | > 100000 | > 100000 nM | > 100000 | > 100000 nM | – | – | > 100000 nM | > 100000 nM | > 100000 | > 100000 nM | > 100000 nM | > 100000 nM
Oc1ccc(Nc2ncnc3c2sc2ncccc23)cc1 | 23.6 nM | 1930 nM | > 33300 | > 100000 nM | 17.5 | – | < 10 | > 100000 nM | 36.9 | > 100000 nM | 83.1 | > 100000 nM | 71 nM | 97000 nM | 47 nM | > 100000 nM | 168 | > 40200 nM | 24.6 nM | > 100000 nM
COc1cccc2c1C(=O)c1c(O)c3c(c(O)c1C2=O)C[C@@](O)(C(=O)CO)C[C@@H]3OC1CC(N)CC(C)O1 (stereo not given in full) | 111 nM and 37.5 nM | 366 nM and 165 nM | 117 | 429 nM and 619 nM | 17.5 | 326 nM and 97.7 nM | 5.36 | 3710 nM and 1930 nM | 33.9 | 179 nM and 303 nM | 116 | 775 nM and 799 nM | 122 nM and 80.6 nM | 298 nM and 369 nM | 7.43 nM and 25 nM | 145 nM and 203 nM | 83.7 | 940 nM and 3520 nM | 39.1 nM and 41.3 nM | 2310 nM and 3060 nM
